This assay concerns the target T1, cloned human GLP-1 receptor (Homo sapiens, UniProt P43220).
T1 construct: expressed in transfected cells; host or cells: CHO or HEK-293 cells
In words: Functional cell-based assay: cAMP functional assay. As to conditions: for Emax: 0.5 h, percentage relative to maximal GLP-1-induced cAMP accumulation, na = not active in the assay, read-out: % activation. Summed up: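 Monolayer cells incubated 30 min at 37 °C with compounds (0.0001–100 μM) in IMDM containing 100 μM RO 20-1724 PDE inhibitor, 0.1% BSA and 2% DMSO. cAMP measured by HTRF.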

T1 sequence (P43220 24-463): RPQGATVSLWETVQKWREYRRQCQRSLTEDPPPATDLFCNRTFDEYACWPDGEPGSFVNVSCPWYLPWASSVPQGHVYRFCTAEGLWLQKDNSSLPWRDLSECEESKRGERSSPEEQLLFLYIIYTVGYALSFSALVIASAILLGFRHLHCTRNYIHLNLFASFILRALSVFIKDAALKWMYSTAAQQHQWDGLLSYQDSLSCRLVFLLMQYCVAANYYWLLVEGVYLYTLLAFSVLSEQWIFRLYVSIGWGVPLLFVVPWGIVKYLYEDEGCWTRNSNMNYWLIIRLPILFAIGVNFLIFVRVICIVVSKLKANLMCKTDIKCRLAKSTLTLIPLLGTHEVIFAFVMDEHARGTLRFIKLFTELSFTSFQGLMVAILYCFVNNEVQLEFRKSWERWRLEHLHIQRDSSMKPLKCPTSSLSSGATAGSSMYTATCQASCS

Take `N#Cc1ccc(-c2ccc(C[C@H](NC(=O)[C@@H]3Cc4cc5c(cc4CN3C(=O)c3cccs3)OC(c3ccc(OCc4cnc(Cl)c(Cl)c4)cc3)C(=O)N5)C(=O)O)cc2)cc1` (stereo partly drawn) [Example 66, (S)-3-(4′-Cyano-biphenyl-4-yl)-2-{[(S)-3-[4-(5,6-dichloro-pyridin-3-ylmethoxy)-phenyl]-2-oxo-6-(thiophene-2-carbonyl)-2,3,5,6,7,8-hexahydro-1H-4-oxa-1,6-diaza-anthracene-7-carbonyl]-amino}-propionic acid]: the midpoint of the response, the EC50, lay at 950 nM and the Emax is 21%.

For `N#Cc1ccc(-c2ccc(C[C@H](NC(=O)[C@@H]3Cc4cc5c(cc4CN3Cc3nccs3)OC(c3ccc(OCc4cccc(Cl)c4)cc3)C(=O)N5)C(=O)O)cc2)cc1` (stereo partly drawn) [Example 67, (S)-2-({(S)-3-[4-(3-Chloro-benzyloxy)-phenyl]-2-oxo-6-thiazol-2-ylmethyl-2,3,5,6,7,8-hexahydro-1H-4-oxa-1,6-diaza-anthracene-7-carbonyl}-amino)-3-(4′-cyano-biphenyl-4-yl)-propionic acid], a half-maximal response (EC50) required 1150 nM and the Emax turned out to be 55%.

`CC(C)OC(=O)N1Cc2cc3c(cc2C[C@H]1C(=O)N[C@@H](Cc1ccc(-c2ccc(C#N)cc2)cc1)C(=O)O)N(C)C(=O)C(c1ccc(OCc2ccc(Cl)c(Cl)c2)cc1)O3` (stereo partly drawn) [Example 68, (S)-7-[(S)-1-Carboxy-2-(4′-cyano-biphenyl-4-yl)-ethylcarbamoyl]-3-[4-(3,4-dichloro-benzyloxy)-phenyl]-1-methyl-2-oxo-1,2,3,5,7,8-hexahydro-4-oxa-1,6-diaza-anthracene-6-carboxylic acid isopropyl ester]: the 50% effective concentration (EC50) is 1100 nM and the Emax was determined as 33%.

As to `CN1C(=O)C(c2ccc(OCc3ccc(Cl)c(Cl)c3)cc2)Oc2cc3c(cc21)C[C@@H](C(=O)N[C@@H](Cc1ccc(-c2ccc(C#N)cc2)cc1)C(=O)O)N(CC#Cc1ccccc1)C3` (stereo partly drawn) [Example 69, (S)-3-(4′-Cyano-biphenyl-4-yl)-2-{[(S)-3-[4-(3,4-dichloro-benzyloxy)-phenyl]-1-methyl-2-oxo-6-(3-phenyl-prop-2-ynyl)-2,3,5,6,7,8-hexahydro-1H-4-oxa-1,6-diaza-anthracene-7-carbonyl]-amino}-propionic acid], the midpoint of the response, the EC50, lay at 574 nM and the Emax was 51%.

In the case of `CCC(c1ccccc1)N1Cc2cc3c(cc2C[C@H]1C(=O)N[C@@H](Cc1ccc(-c2ccc(C#N)cc2)cc1)C(=O)O)N(C)C(=O)C(c1ccc(OCc2ccc(Cl)c(Cl)c2)cc1)O3` (stereo partly drawn) [Example 70, (S)-3-(4′-Cyano-biphenyl-4-yl)-2-{[(S)-3-[4-(3,4-dichloro-benzyloxy)-phenyl]-1-methyl-2-oxo-6-(1-phenyl-propyl)-2,3,5,6,7,8-hexahydro-1H-4-oxa-1,6-diaza-anthracene-7-carbonyl]-amino}-propionic acid], the EC50 is 988 nM and the Emax amounted to 6.9%.

As for `CCc1ccccc1CN1Cc2cc3c(cc2C[C@H]1C(=O)N[C@@H](Cc1ccc(-c2ccc(C#N)cc2)cc1)C(=O)O)N(C)C(=O)C(c1ccc(OCc2ccc(Cl)c(Cl)c2)cc1)O3` (stereo partly drawn) [Example 71, (S)-3-(4′-Cyano-biphenyl-4-yl)-2-{[(S)-3-[4-(3,4-dichloro-benzyloxy)-phenyl]-6-(2-ethyl-benzyl)-1-methyl-2-oxo-2,3,5,6,7,8-hexahydro-1H-4-oxa-1,6-diaza-anthracene-7-carbonyl]-amino}-propionic acid], the 50% effective concentration (EC50) came to 793 nM and the Emax worked out at 49%.

On to `CN1C(=O)C(c2ccc(OCc3ccc(Cl)c(Cl)c3)cc2)Oc2cc3c(cc21)C[C@@H](C(=O)N[C@@H](Cc1ccc(-c2ccc(C#N)cc2)cc1)C(=O)O)N(C1CCCC1)C3` (stereo partly shown) [Example 74], for which the half-maximal effective concentration (EC50) stood at 327 nM and the Emax is 19%.

Regarding `CN1C(=O)C(c2ccc(OCc3ccc(Cl)c(Cl)c3)cc2)Oc2cc3c(cc21)C[C@@H](C(=O)N[C@@H](Cc1ccc(-c2ccc(C#N)cc2)cc1)C(=O)O)N(C1CCCCC1)C3` (stereo partly drawn) [Example 75, (S)-3-(4′-Cyano-biphenyl-4-yl)-2-({(S)-6-cyclohexyl-3-[4-(3,4-dichloro-benzyloxy)-phenyl]-1-methyl-2-oxo-2,3,5,6,7,8-hexahydro-1H-4-oxa-1,6-diaza-anthracene-7-carbonyl}-amino)-propionic acid], the EC50 is 244 nM and the Emax is 20%.

`CN1C(=O)C(c2ccc(OCc3ccc(Cl)c(Cl)c3)cc2)Oc2cc3c(cc21)C[C@@H](C(=O)N[C@@H](Cc1ccc(-c2ccc(C#N)cc2)cc1)C(=O)O)N(C1CCC1)C3` (stereo partly drawn) [Example 76, (S)-3-(4′-Cyano-biphenyl-4-yl)-2-({(S)-6-cyclobutyl-3-[4-(3,4-dichloro-benzyloxy)-phenyl]-1-methyl-2-oxo-6(1-phenyl-cyclopentylmethyl)-2,3,5,6,7,8-hexahydro-1H-4-oxa-1,6-diaza-anthracene-7-carbonyl}-amino)-propionic acid]: the EC50 is 1140 nM and the Emax is 8.12%.

On to `CN1C(=O)C(c2ccc(OCc3ccc(Cl)c(Cl)c3)cc2)Oc2cc3c(cc21)C[C@@H](C(=O)N[C@@H](Cc1ccc(-c2ccc(C#N)cc2)cc1)C(=O)O)N(CC1(c2ccccc2)CCCC1)C3` (stereo partly drawn) [Example 77, (S)-3-(4′-Cyano-biphenyl-4-yl)-2-{[(S)-3-[4-(3,4-dichloro-benzyloxy)-phenyl]-1-methyl-2-oxo-6-(1-phenyl-cyclopentylmethyl)-2,3,5,6,7,8-hexahydro-1H-4-oxa-1,6-diaza-anthracene-7-carbonyl]-amino}-propionic acid], for which the EC50 stood at 1710 nM and the Emax came to 53%.

`CC(c1ccccc1)N1Cc2cc3c(cc2C[C@H]1C(=O)N[C@@H](Cc1ccc(-c2ccc(C#N)cc2)cc1)C(=O)O)N(C)C(=O)C(c1ccc(OCc2ccc(Cl)c(Cl)c2)cc1)O3` (stereo partly drawn) [Example 80, (S)-3-(4′-Cyano-biphenyl-4-yl)-2-{[(S)-3-[4-(3,4-dichloro-benzyloxy)-phenyl]-1-methyl-2-oxo-6-(1-phenyl-ethyl)-2,3,5,6,7,8-hexahydro-1H-4-oxa-1,6-diaza-anthracene-7-carbonyl]-amino}-propionic acid]: the response was half-maximal at 66 nM (EC50) and the Emax turned out to be 16%.

Regarding `O=C1Nc2cc3c(cc2OC1c1ccc(OCc2ccc(Cl)c(Cl)c2)cc1)CN(C(=O)c1ccccc1)[C@H](C(=O)N[C@@H](Cc1ccc(-c2ccncc2)cc1)C(=O)O)C3` (stereo partly drawn) [Example 83, (S)-2-({(S)-6-Benzoyl-3-[4-(3,4-dichloro-benzyloxy)-phenyl]-2-oxo-2,3,5,6,7,8-hexahydro-1H-4-oxa-1,6-diaza-anthracene-7-carbonyl}-amino)-3-(4-pyridin-4-yl-phenyl)-propionic acid], the concentration giving a half-maximal response (EC50) was 710 nM and the Emax worked out at 18%.

`O=C1Nc2cc3c(cc2OC1c1ccc(OCc2ccc(Cl)c(Cl)c2)cc1)CN(C(=O)c1ccccc1)[C@H](C(=O)N[C@@H](Cc1ccc(-c2ccc(Cl)cc2)cc1)C(=O)O)C3` (stereo partly drawn) [Example 84, (S)-2-({(S)-6-Benzoyl-3-[4-(3,4-dichloro-benzyloxy)-phenyl]-2-oxo-2,3,5,6,7,8-hexahydro-1H-4-oxa-1,6-diaza-anthracene-7-carbonyl}-amino)-3-(4′-chloro-biphenyl-4-yl)-propionic acid]: a half-maximal effect (EC50) was put at 920 nM and the Emax stood at 43%.

With `Cc1ccc(-c2ccc(C[C@H](NC(=O)[C@@H]3Cc4cc5c(cc4CN3Cc3ccccn3)OC(c3ccc(OCc4ccc(Cl)c(Cl)c4)cc3)C(=O)N5)C(=O)O)cc2)cc1` (stereo partly drawn) [Example 85, (S)-2-({(S)-3-[4-(3,4-Dichloro-benzyloxy)-phenyl]-2-oxo-6-pyridin-2-ylmethyl-2,3,5,6,7,8-hexahydro-1H-4-oxa-1,6-diaza-anthracene-7-carbonyl}-amino)-3-(4′-methyl-biphenyl-4-yl)-propionic acid], the 50% effective concentration (EC50) was determined as 2000 nM and the Emax came to 55%.

Turning to `CC[C@@H](c1ccccc1)N1Cc2cc3c(cc2C[C@H]1C(=O)N[C@@H](Cc1ccc(-c2ccc(C#N)cc2)cc1)C(=O)O)N(C)C(=O)[C@@H](c1ccc(OCc2ccc(Cl)c(Cl)c2)cc1)O3` [Example 86, (S)-3-(4′-Cyano-biphenyl-4-yl)-2-{[(3R,7S)-3-[4-(3,4-dichloro-benzyloxy)-phenyl]-1-methyl-2-oxo-6-((S)-1-phenyl-propyl)-2,3,5,6,7,8-hexahydro-1H-4-oxa-1,6-diaza-anthracene-7-carbonyl]-amino}-propionic acid], it took 59.3 nM to reach a half-maximal effect (EC50) and the Emax was 58%.

Turning to `CC[C@@H](c1ccccc1)N1Cc2cc3c(cc2C[C@H]1C(=O)N[C@@H](Cc1ccc(-c2ccc(C#N)cc2)cc1)C(=O)O)N(C)C(=O)[C@H](c1ccc(OCc2ccc(Cl)c(Cl)c2)cc1)O3` [Example 87, (S)-3-(4′-Cyano-biphenyl-4-yl)-2-{[(3S,7S)-3-[4-(3,4-dichloro-benzyloxy)-phenyl]-1-methyl-2-oxo-6-((S)-1-phenyl-propyl)-2,3,5,6,7,8-hexahydro-1H-4-oxa-1,6-diaza-anthracene-7-carbonyl]-amino}-propionic acid], a half-maximal response (EC50) required 64.5 nM and the Emax was determined as 82%.

With `CC[C@@H](c1ccccc1)N1Cc2cc3c(cc2C[C@H]1C(=O)N[C@@H](Cc1ccc(-c2ccc(Cl)cc2)cc1)C(=O)O)N(C)C(=O)[C@@H](c1ccc(OCc2ccc(Cl)c(Cl)c2)cc1)O3` [Example 90, (S)-3-(4′-Chloro-biphenyl-4-yl)-2-{[(3R,7S)-3-[4-(3,4-dichloro-benzyloxy)-phenyl]-1-methyl-2-oxo-6-((S)-1-phenyl-propyl)-2,3,5,6,7,8-hexahydro-1H-4-oxa-1,6-diaza-anthracene-7-carbonyl]-amino}-propionic acid], the 50% effective concentration (EC50) is 1230 nM and the Emax turned out to be 43%.
